One assay addresses T1, LRRK2(G2019S) (Homo sapiens, UniProt Q5S007, G2019S).
T1 construct: purchased DiscoveRx
As to the kind of experiment: KinomeScan. The assay is classed as binding. The following applies: read-out: % Control.

Assay [1] deals with T2, ABL1(H396P)-nonphosphorylated (Homo sapiens, UniProt P00519, H396P).
T2 construct: purchased DiscoveRx
As to the kind of experiment: KinomeScan. The assay is classed as binding. To be noted: read-out: % Control.

Another assay concerns the target T3, NEK4 (Homo sapiens, UniProt P51957).
T3 construct: purchased DiscoveRx
In words: KinomeScan. The assay is classed as binding. The following applies: read-out: % Control.

The target of a further assay is T4, DAPK2 (Homo sapiens, UniProt Q9UIK4).
T4 construct: purchased DiscoveRx (Fremont, CA), KinomeScan service
As to the kind of experiment: KinomeScan. Format: binding. The following applies: read-out: % Control.

A further assay addresses T5, MLCK (Homo sapiens, UniProt Q32MK0).
T5 construct: purchased DiscoveRx
In words: KinomeScan. Format: binding. The following applies: read-out: % Control.

A further assay has as its target T6, EGFR(G719S) (Homo sapiens, UniProt P00533, G719S).
T6 construct: purchased DiscoveRx (Fremont, CA), KinomeScan service
As to the kind of experiment: KinomeScan. To be noted: read-out: % Control. The assay is classed as binding.

For a further assay, the target named is T7, TXK (Homo sapiens, UniProt P42681).
T7 construct: purchased DiscoveRx
As to the kind of experiment: KinomeScan. The assay is classed as binding. The following applies: read-out: % Control.

The next assay has as its target T8, SNRK (Homo sapiens, UniProt Q9NRH2).
T8 construct: purchased DiscoveRx (Fremont, CA)
In words: KinomeScan. The assay is classed as binding. To be noted: read-out: % Control.

The next assay concerns the target T9, WEE2 (Homo sapiens, UniProt P0C1S8).
T9 construct: purchased DiscoveRx
In words: KinomeScan. Format: binding. To be noted: read-out: % Control.

A further assay has as its target T10, AMPK-alpha2 (Homo sapiens, UniProt P54646).
T10 construct: purchased DiscoveRx (Fremont, CA)
In words: KinomeScan. The assay is classed as binding. The following applies: read-out: % Control.

The target of the next assay is T11, PIK3CG (Homo sapiens, UniProt P48736).
T11 construct: purchased DiscoveRx (Fremont, CA)
In words: KinomeScan. The assay is classed as binding. The following applies: read-out: % Control.

In another assay the target is T12, GSK3B (Homo sapiens, UniProt P49841).
T12 construct: purchased DiscoveRx (Fremont, CA)
As to the kind of experiment: KinomeScan. Format: binding. To be noted: read-out: % Control.

A further assay deals with T13, GAK (Homo sapiens, UniProt O14976).
T13 construct: purchased DiscoveRx (Fremont, CA)
In words: KinomeScan. Format: binding. To be noted: read-out: % Control.

The target of the next assay is T14, Secretin (Homo sapiens, UniProt P47872).
T14 construct: host or cells: Chem-1 cells with Gα15
In words: GPCR Profiler. The assay is classed as cell-based.

The target in the next assay is T15, M2 (Homo sapiens, UniProt P08172).
T15 construct: host or cells: Chem-1 cells with promiscuous Gα15
As to the kind of experiment: GPCR Profiler. Format: cell-based.

The target of the next assay is T16, MARK3 (Homo sapiens, UniProt P27448).
T16 construct: purchased DiscoveRx (Fremont, CA)
As to the kind of experiment: KinomeScan. The assay is classed as binding. The following applies: read-out: % Control.

The next assay has as its target T17, PIM1 (Homo sapiens, UniProt P11309).
T17 construct: purchased DiscoveRx (Fremont, CA)
As to the kind of experiment: KinomeScan. Format: binding. The following applies: read-out: % Control.

Another assay deals with T18, MET (Homo sapiens, UniProt P08581).
T18 construct: purchased DiscoveRx (Fremont, CA)
In words: KinomeScan. To be noted: read-out: % Control. Format: binding.

A further assay concerns the target CDKL3 (Homo sapiens, UniProt Q8IVW4). As to the kind of experiment: KinomeScan. Format: binding. To be noted: read-out: % Control.
In another assay the target is T19, S1P4 (Homo sapiens, UniProt O95977).
T19 construct: host or cells: Chem-1 cells with Gα15
As to the kind of experiment: GPCR Profiler. Format: cell-based.

In assay [2] the target is T20, ABL1(T315I)-phosphorylated (Homo sapiens, UniProt P00519, T315I).
T20 construct: purchased DiscoveRx
In words: KinomeScan. Format: binding. To be noted: read-out: % Control.

Another assay has as its target T21, APJ (Homo sapiens, UniProt P35414).
T21 construct: host or cells: Chem-1 cells with promiscuous Gα15
In words: GPCR Profiler. The assay is classed as cell-based.

The target of another assay is T22, sst2 (Homo sapiens, UniProt P30874).
T22 construct: host or cells: Chem-1 cells with Gα15
As to the kind of experiment: GPCR Profiler. The assay is classed as cell-based.

Another assay addresses T23, EPHB6 (Homo sapiens, UniProt O15197).
T23 construct: purchased DiscoveRx (Fremont, CA)
As to the kind of experiment: KinomeScan. Format: binding. The following applies: read-out: % Control.

Assay [3] has as its target T24, RSK3(Kin.Dom.1-N-terminal) (Homo sapiens, UniProt Q15349).
T24 construct: RSK3(Kin.Dom.1-N-terminal); purchased DiscoveRx (Fremont, CA)
In words: KinomeScan. The assay is classed as binding. To be noted: read-out: % Control.

A further assay has as its system U87 spheroids. In words: GBM spheroid assay. Format: cell-based, human. The protocol:
One thousand cells per well were plated in an ultra-low attachment, round-bottomed, 96-well plate, and spheroids were allowed to form for 3 days. Wells were then exposed to concentrations of vehicle, OGM2 or TMZ or a combination for 3 days. Spheroids were imaged in brightfield at 10× using z-stacks that were collapsed into z-projections in the Gen5 software using the LionheartFx (BioTek™). Automated measurements of the spheroid area were obtained using Gen5 software.
Tumor spheroid cultures are a more physiological model of tumor growth than typical 2D cell culture. Temozolomide sensitive U87 (FIG. 20A) and Temozolomide insensitive U138 (FIG. 20B) glioblastoma cell lines were plated in low attachment round bottom 96-well plates and allowed to form tumor spheroids for 3 days (T0). At T0, spheroids were imaged using Lionheart™ (HCS) High-Content Imaging Systems (Biotek™) and then were exposed to increasing doses of either Temozolomide or OGM2. After 5 days of treatment the spheroids were imaged again (T5). The size (area) of the spheroids after 5 days of treatment was quantified, and the average size of the spheroids at TO is depicted in red.
A GPR68-positive allosteric modulator, Ogerin, was tested. U87glioblastoma cells were plated in low attachment round bottom 96-well plates and allowed to form tumor spheroids for 3 days (TO). These spheroids were treated with Vehicle (DMSO), 10 μM/20 μM Ogerin or 10 μM/20 μM Ogremorphin-2 (OGM2). The spheroids were placed in the Lionheart™ HCS equipped with environmental control (5% CO2 at 37° C.) and imaged every 12 hours.
Spheroids were formed over 3 days using low attachment 96-well round bottom plates and then treated with DMSO or OGM2 in either pH 8 buffered media or pH 6.2 buffered media and grown for 3 days. The size (area) of spheroids was measured in relative area units. […] This increase in growth was abrogated by OGM2.

Assay [4] concerns U87 glioblastoma spheroids. In words: Matrigel matrix invasion of spheroids. Format: cell-based. An excerpt:
U87 glioblastoma spheroids were formed in low attachment round bottom plates for 3 days. Spheroids were then covered in Matrigel™, which was allowed to polymerize before treatment with acidified media with or without OGM2. Acidification increased the degree of matrix invasion which is attenuated by OGM2.

T22 sequence (P30874 whole entry, species assumed): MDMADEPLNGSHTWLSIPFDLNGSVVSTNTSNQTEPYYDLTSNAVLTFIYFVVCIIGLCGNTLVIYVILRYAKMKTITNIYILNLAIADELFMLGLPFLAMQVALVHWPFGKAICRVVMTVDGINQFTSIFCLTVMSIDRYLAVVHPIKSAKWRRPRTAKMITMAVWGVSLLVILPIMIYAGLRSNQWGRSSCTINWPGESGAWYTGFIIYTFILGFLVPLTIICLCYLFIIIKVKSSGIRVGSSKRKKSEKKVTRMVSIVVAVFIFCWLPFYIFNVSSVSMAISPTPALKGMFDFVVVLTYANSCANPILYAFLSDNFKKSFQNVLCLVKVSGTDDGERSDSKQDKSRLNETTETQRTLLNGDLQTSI
T14 sequence (P47872 23-440): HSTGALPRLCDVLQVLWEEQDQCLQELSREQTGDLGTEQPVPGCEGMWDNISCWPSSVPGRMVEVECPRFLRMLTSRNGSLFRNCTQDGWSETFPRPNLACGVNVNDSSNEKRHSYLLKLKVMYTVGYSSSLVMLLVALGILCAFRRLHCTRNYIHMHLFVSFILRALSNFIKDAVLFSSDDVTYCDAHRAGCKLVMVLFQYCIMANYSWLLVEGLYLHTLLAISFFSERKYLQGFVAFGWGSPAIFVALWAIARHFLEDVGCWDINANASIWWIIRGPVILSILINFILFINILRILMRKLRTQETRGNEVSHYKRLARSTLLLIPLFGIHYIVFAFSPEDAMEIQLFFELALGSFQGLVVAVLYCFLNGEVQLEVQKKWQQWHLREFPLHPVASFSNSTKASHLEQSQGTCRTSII
T21 sequence (P35414 whole entry, species assumed): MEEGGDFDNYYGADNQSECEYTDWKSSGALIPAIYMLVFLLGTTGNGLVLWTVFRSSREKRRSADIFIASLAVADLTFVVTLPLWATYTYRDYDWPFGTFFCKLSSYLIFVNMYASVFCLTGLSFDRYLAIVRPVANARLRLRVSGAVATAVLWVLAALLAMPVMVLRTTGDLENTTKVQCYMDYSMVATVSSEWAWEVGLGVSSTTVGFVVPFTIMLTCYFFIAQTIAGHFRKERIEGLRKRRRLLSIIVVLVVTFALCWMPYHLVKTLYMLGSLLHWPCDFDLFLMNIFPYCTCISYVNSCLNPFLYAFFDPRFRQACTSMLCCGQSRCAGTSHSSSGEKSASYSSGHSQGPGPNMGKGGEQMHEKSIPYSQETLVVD
T15 sequence (P08172 whole entry): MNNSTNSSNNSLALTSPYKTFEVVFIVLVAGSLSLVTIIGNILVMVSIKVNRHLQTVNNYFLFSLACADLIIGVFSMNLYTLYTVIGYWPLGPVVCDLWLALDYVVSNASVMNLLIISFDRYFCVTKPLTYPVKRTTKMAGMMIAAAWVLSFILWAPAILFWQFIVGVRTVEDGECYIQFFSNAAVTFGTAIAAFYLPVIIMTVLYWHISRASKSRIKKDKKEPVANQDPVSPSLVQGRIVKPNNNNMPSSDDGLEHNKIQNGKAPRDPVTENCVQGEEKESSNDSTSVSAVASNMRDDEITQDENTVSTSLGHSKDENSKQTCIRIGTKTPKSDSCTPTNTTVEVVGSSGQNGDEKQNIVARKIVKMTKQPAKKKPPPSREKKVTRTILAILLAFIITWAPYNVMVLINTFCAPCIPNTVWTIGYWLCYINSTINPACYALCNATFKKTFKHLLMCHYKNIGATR
T19 sequence (O95977 whole entry, species assumed): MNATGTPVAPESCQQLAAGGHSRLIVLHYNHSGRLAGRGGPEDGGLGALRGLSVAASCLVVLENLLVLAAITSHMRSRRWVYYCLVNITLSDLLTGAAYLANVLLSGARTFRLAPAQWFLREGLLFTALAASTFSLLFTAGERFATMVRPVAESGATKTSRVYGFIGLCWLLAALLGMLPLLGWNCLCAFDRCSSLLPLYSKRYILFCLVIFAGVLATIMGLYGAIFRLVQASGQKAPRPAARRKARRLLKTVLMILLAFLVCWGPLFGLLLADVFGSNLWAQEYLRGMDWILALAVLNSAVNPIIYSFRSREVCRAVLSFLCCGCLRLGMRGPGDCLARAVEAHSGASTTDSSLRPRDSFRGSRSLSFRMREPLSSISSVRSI
T10 sequence (P54646 whole entry): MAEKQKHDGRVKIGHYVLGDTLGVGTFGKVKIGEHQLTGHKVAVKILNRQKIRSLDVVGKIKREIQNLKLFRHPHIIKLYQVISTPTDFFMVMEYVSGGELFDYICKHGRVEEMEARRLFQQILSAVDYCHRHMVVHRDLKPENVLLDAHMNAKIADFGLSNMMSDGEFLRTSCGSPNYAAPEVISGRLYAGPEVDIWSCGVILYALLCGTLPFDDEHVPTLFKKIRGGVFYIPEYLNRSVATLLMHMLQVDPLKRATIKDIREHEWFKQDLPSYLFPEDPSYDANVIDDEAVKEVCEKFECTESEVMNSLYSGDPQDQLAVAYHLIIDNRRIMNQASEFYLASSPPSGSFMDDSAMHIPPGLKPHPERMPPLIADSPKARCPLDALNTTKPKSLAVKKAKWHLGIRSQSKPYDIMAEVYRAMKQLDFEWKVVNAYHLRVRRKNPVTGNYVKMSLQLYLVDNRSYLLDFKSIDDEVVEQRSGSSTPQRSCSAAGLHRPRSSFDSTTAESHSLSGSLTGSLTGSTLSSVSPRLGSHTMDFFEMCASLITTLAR
T4 sequence (Q9UIK4 whole entry): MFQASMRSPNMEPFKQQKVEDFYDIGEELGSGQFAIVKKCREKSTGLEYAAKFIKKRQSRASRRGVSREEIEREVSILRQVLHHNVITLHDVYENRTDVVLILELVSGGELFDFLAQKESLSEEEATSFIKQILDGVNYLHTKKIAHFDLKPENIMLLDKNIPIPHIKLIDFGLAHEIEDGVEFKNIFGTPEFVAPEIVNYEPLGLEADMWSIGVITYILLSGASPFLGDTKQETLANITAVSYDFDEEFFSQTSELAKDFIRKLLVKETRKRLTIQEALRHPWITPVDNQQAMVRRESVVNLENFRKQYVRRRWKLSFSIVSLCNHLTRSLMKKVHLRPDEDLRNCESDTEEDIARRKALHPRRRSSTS
T13 sequence (O14976 whole entry): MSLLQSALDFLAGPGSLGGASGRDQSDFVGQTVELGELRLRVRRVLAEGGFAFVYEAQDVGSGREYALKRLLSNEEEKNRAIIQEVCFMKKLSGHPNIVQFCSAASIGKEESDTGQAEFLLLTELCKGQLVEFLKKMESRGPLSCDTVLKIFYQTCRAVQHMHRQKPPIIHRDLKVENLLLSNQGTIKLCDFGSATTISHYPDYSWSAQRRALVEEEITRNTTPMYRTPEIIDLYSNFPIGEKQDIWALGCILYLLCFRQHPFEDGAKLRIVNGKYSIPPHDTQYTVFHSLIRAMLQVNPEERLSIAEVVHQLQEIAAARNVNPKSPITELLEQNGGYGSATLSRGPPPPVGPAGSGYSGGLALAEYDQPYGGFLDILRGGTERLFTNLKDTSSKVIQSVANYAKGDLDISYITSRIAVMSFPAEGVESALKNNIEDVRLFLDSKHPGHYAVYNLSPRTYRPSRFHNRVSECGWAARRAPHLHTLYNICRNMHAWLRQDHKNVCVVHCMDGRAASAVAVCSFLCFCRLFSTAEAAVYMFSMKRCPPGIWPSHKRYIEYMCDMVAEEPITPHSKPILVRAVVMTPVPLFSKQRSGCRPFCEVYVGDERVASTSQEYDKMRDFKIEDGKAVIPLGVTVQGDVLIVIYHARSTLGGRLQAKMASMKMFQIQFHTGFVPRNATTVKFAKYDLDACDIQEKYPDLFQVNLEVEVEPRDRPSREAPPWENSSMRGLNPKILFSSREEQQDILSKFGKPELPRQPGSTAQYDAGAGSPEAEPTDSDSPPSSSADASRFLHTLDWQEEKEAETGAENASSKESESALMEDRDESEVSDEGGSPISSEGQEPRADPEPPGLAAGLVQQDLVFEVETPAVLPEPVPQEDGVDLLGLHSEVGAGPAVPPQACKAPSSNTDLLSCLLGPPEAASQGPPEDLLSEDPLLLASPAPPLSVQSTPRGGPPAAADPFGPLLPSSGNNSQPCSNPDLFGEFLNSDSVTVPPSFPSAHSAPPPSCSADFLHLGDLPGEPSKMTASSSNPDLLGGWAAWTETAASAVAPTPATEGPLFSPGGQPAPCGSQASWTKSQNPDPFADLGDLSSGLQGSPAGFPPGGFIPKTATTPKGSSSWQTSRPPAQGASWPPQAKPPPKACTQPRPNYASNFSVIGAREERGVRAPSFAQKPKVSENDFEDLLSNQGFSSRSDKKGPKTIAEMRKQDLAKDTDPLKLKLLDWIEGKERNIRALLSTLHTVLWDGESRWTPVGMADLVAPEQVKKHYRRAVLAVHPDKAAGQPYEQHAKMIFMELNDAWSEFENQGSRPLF
T12 sequence (P49841 whole entry): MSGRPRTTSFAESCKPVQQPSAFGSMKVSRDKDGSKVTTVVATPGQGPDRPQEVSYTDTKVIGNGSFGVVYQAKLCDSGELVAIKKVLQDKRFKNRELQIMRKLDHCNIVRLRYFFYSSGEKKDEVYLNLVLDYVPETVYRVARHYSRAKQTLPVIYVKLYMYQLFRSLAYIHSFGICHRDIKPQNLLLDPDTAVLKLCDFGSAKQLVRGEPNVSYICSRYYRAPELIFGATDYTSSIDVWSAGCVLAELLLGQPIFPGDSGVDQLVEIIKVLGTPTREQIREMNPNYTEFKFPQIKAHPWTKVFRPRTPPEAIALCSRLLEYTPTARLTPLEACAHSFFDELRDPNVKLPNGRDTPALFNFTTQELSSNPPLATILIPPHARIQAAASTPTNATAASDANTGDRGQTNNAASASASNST
T24 sequence (Q15349 59-318 limits assumed): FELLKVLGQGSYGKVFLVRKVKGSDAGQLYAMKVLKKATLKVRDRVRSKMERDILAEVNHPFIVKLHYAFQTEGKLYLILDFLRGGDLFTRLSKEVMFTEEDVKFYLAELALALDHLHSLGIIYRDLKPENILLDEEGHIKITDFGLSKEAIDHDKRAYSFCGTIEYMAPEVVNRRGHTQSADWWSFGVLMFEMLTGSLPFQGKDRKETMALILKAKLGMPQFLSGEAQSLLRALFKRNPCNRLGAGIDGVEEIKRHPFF

For the compound `CCc1ccc2c(c1)C1(NN=C(c3cccc4ccccc34)S1)C(=O)N2` (stereo not shown) [OGM1, 5-ethyl-5′-naphthalen-1-ylspiro[1H-indole-3,2′-3H-1,3,4-thiadiazole]-2-one], the remaining binding at 10 µM on LRRK2(G2019S) is 100%; in [1], 88%; at NEK4, 100%; on DAPK2, 89%; at MLCK, 100%; on EGFR(G719S), 95%. Moreover, the remaining binding at 10 µM is 99% on TXK; 100% at SNRK; 100% on WEE2; 100% at AMPK-alpha2; 100% on PIK3CG; 83% at GSK3B. Moreover, the remaining binding at 10 µM on GAK is 64%; on MARK3 it was 100%; at PIM1 it was 56%; at MET, 100%; on CDKL3 it was 100%; in [2] it was 72%. Further, the remaining binding at 10 µM was found to be 76% at EPHB6 and 100% in assay [3]. The Antagonism is listed as 1.7 on Secretin (10 uM); 3.3 at M2 (10 uM); −5.2 at S1P4 (10 uM); 7.7 at APJ (10 uM); −1 on sst2 (10 uM). For the same compound, the Agonism is listed as 0.9 at Secretin (12.5 uM); −0.1 on M2 (12.5 uM); 0.3 at S1P4 (12.5 uM); 0.9 at APJ (12.5 uM); −0.2 on sst2 (12.5 uM).

As to `CCc1ccc2c(c1)C1(NN=C(c3ccccc3)S1)C(=O)N2` (stereo not shown) [OGM2], in the assay on U87 spheroids, the spheroid growth rate result is given as “impaired spheroid growth rate” and the “spheroid growth, comparison with TMZ” value is “more potent inhibitor of U87 spheroid growth than TMZ”. In addition, the “increase in spheroid growth at pH 6.2 versus pH 8” value in the assay on U87 spheroids (3 days) is listed as “abrogated”. Further, the acidification-increased matrix invasion entry in assay [4] is “attenuated”.

The record behind these values is patent publication US20240327364A1, “THERAPEUTIC TARGETING OF GPR68 TO INDUCE FERROPTOSIS” (University Of Maryland, Baltimore, priority 2023, published 2024).
